Experiments:
[1] = tested on: ear edema induced by topical application of TPA (phorbol 12-myristate acetate); assay: TPA-Induced Ear Edema (TPAEE); conditions: for change in vivo at 10 µg/ear: Mus musculus, 5 h, read-out: TPAEE
Protocol: Female Swiss Webster mice topically received TPA (10 μg/ear) on the right ear and vehicle on the left ear. The test compound (10 μg/ear) was applied to both ears. After five hours, the animals were sacrificed and an ear punch (4 mm) was taken from each ear. The difference in right and left ear punch weights for each animal was determined to assess activity.

[2] = tested on: mouse ear edema induced by topical application of arachidonic acid; assay: Arachidonic Acid-Induced Ear Edema (AAEE); assay type: in vivo, Female Swiss Webster mice; conditions: for AAEE: 1 mg (1.0 mg/ear)
Protocol: Arachidonic Acid-Induced Ear Edema (AAEE)
Female Swiss Webster mice topically received vehicle or test compound (1.0 mg/ear) on both ears (10 μl on outer and inner ears). After 30 minutes, the right ear of all groups received arachidonic acid (4 mg/ear) and the left ear received vehicle alone. […] See Young, J. M. et al., Invest. Dermatol., 80, (1983), pp 48-52.

porcine pancreatic PLA2 = target: T1, porcine pancreatic PLA2 (Sus scrofa, UniProt P00592); assay: In Vitro Phospholipase A2 Assay (PLA2); assay type: biochemical; conditions: 0.01M; read-out: PLA2 (difference vs. control)
T1 construct: from tissue; host or cells: porcine pancreas
Protocol: In Vitro Phospholipase A2 Assay (PLA2)
The ability of a compound to modulate PLA2 activity (cleavage of ^14 C-dipalmitoyl phosphotidylcholine at the 2-position to ^14 C-palmitic acid) was quantitated in this assay. The reaction mixture contained Tris buffer (25 mM), pH 8.0, calcium chloride (2.0 mM), bovine serum albumin (0.5 mg), dipalmitoyl phosphotidylcholine (8×10^-5M), (^14 C-palmitoyl)dipalmitoyl phosphotidylcholine (6×10^3cpm), porcine pancreatic PLA2 (3.2 units) and the test compound. The reaction was run at 37° C. in a shaking incubator. The reaction was quenched and an internal standard was added in order to determine sample recovery. The samples were loaded onto C18 columns, eluted with ethanol, and the radioactivity was then measured. […] See Feyen, J. H. M., et al., Journal of Chromatography 259 (1983), pp. 338-340.

epidermal DNA synthesis = assay: Epidermal DNA Synthesis (in vivo DNA); parameters: species or system HRS/J hairless mice; conditions: topical, hairless mice; for in vivo DNA: 2.5 mg
Protocol: Epidermal DNA Synthesis (in vivo DNA)
The influence of compounds on the proliferation of skin was assessed by determining inhibition or stimulation of DNA synthesis. HRS/J hairless mice received topical application of a compound or vehicle alone on the dorsal aspect. After 24 hours, ^3 H-thymidine (25 μCi) was administered by intraperitonal injection. After an additional hour, animals were sacrificed and the dorsal skin was removed. The epidermal layer was peeled from the dermis by heat separation. Unincorporated ^3 H-thymidine was removed by washing successively with trichloroacetic acid and ethanol. Samples were centrifuged at 2,000 rpm and supernatants discarded. The epidermal sheets were then extracted with warm trichloroacetic acid and the supernatants analyzed for ^3 H-thymidine incorporation by scintillation counting and total DNA by a standard colorimetric assay. […] See Lowe, N. J., et al., Arch. Dermatol., 117 (1981), pp. 394-8; and Burton, K., Biochem. J. 62 (1956), pp. 315-22.

[3] = tested on: cultured human epidermal keratinocytes; assay: Culture Human Keratinocyte DNA Synthesis (in vitro DNA); assay type: cell-based
Protocol: Culture Human Keratinocyte DNA Synthesis (in vitro DNA)
The effect of a compound on the proliferation of cultured human epidermal keratinocytes was measured. After incubation with a test compound for 24 hours, the cultures were pulse-labelled for three hours with 5 μCi of ^3 H-thymidine. The cultures were extracted for DNA successively with trichloroacetic acid and ethanol, and thereafter dissolved with NaOH. The radioactive incorporation of ^3 H-thymidine into DNA was determined.

[4] = tested on: naja naja (snake venom) phospholipase A2 -induced paw edema; assay: Phospholipase A2-induced Paw Edema (PIPE); assay type: in vivo, male Wistar rats; conditions: for PIPE, difference in edema vs. control: 0.1M, rat, subplantar injection, two hours
Protocol: Phospholipase A2 -induced Paw Edema (PIPE)
The ability of compounds to prevent naja naja (snake venom) phospholipase A2 -induced paw edema in male Wistar rats (100-125 g) was measured. PLA2 (3 units/paw) alone or with 0.1M of the test compound was injected in the subplantar region of the rat left hindpaw. Immediately subsequent to the injection and at two hours post administration the paw was immersed in a mercury bath, and paw displacement was measured on a recorder via a transducer. […] See Giessler, A. J. et al., Agents and Actions, Vol. 10, Trends in Inflammation Research (1981), p. 195.

T1 sequence (P00592 23-146): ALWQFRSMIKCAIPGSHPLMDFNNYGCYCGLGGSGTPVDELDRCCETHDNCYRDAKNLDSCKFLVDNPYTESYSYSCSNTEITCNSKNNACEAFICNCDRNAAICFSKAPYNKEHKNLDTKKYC

Compound	change in vivo at 10 µg/ear [1]	AAEE [2]	inhibition at 10000 µM (porcine pancreatic PLA2)	PIPE, difference in edema vs. control [4]	further results
O=[N+]([O-])c1cc[n+]([O-])cc1NC1CCc2ccccc21 (stereo not drawn) [N-(Indan-1-yl)-4-nitro-3-pyridinamine-1-oxide]	-65%	–	–	–	–
Nc1ccncc1Nc1ccc2[nH]ccc2c1 [N-(4-Amino-3-pyridinyl)-1H-indol-5-amine]	-85%	-41%	87%	-67%	in vivo DNA (epidermal DNA synthesis): -27%; inhibition at 50 µM ([3]; 50 μM, 24 hours): 81%
Cn1ccc2cc(Nc3c[n+]([O-])ccc3[N+](=O)[O-])ccc21 [1-Methyl-N-(4-nitro-3-pyridinyl)-1H-indol-5-amine, N^5-oxide]	-30%	–	66%	-41%	–
Nc1cnccc1Nc1ccc2[nH]ccc2c1 [N-(3-Amino-4-pyridinyl)-1H-indol-5-amine]	–	-37%	82%	–	–
Cn1ccc2cc(Nc3cnccc3N)ccc21 [N-(4-Amino-3-pyridinyl)-1-methyl-1H-indol-5-amine]	–	–	62%	-42%	–
Nc1ccncc1Oc1ccc2[nH]ccc2c1 [3-[(1H-Indol-5-yl)-oxy]-4-pyridinamine, 3-[(1H-Indol-5-yl)oxy]-4-pyridinamine]	-42%	-50%	34%	-62%	in vivo DNA (epidermal DNA synthesis): -37%
Nc1ccncc1Nc1ccc2cn[nH]c2c1 [N-(4-Amino-3-pyridinyl)-1H-indazol-6-amine]	–	-35%	57%	–	–
O=[N+]([O-])c1cc[n+]([O-])cc1Nc1ccc2cn[nH]c2c1 [N-(4-Nitro-3-pyridinyl)-1H-indazol-6-amine, N^6-oxide]	–	–	83%	–	–
Nc1cc[n+]([O-])cc1Nc1cccc2cc[nH]c12 [N-(4-Amino-3-pyridinyl)-1H-indol-7-amine, N^7-oxide]	-38%	–	–	-45%	–
Nc1cnccc1Oc1ccc2[nH]ccc2c1 [4-[(1H-Indol-5-yl)-oxy]-3-pyridinamine, 4-[(1H-Indol-5-yl)oxy]-3-pyridinamine]	–	–	–	-52%	–
O=[N+]([O-])c1cnccc1Nc1ccc2[nH]ccc2c1 [N-(3-Nitro-4-pyridinyl)-1H-indol-5-amine]	–	–	36%	–	–
Nc1ccncc1Nc1ccc2c(c1)CCC2 [N^3-(Indan-5-yl)-3,4-pyridinediamine]	-75%	-49%	–	–	–
O=[N+]([O-])c1cc[n+]([O-])cc1Nc1ccc2[nH]ccc2c1 [N-(4-Nitro-3-pyridinyl)-1H-indol-5-amine, N^5-oxide]	–	–	71%	–	–
O=[N+]([O-])c1cc[n+]([O-])cc1Nc1ccc2c(c1)CCC2 [N-(Indan-5-yl)-4-nitro-3-pyridinamine-1-oxide]	-48%	-44%	–	–	–
COc1ccc2c(c1)c(CC(=O)O)c(C)n2C(=O)c1ccc(Cl)cc1 [indomethacin, reference compound]	–	–	–	–	ED50 (Standard) ([2]; AAEE standard): 1.5 mg/ear; ED50 (Standard) (epidermal DNA synthesis; in vivo DNA standard): 1.75 mg/animal; IC50 ([3]; read-out: IC50 (Standard)): 38 µM
O=[N+]([O-])c1cc[n+]([O-])cc1Nc1cccc2cc[nH]c12 [N-(4-Nitro-3-pyridinyl)-1H-indol-7-amine, N^7-oxide]	-40%	–	–	–	–
C[C@]12CCC(=O)C=C1CC[C@@H]1[C@@H]2[C@@H](O)C[C@@]2(C)[C@H]1CC[C@]2(O)C(=O)CO [hydrocortisone, reference compound]	–	–	–	–	ED50 (Standard) ([1]; TPAEE standard, mouse): 47 μg/ear; ED50 (Standard) ([4]; PIPE standard, rat paw): 0.46 M
CC(=O)N1CCc2cc(Nc3cnccc3N)ccc21 [1-Acetyl-N-(4-amino-3-pyridinyl)-2,3-dihydro-1H-indol-5-amine]	–	-36%	–	–	–
O=[N+]([O-])c1cc[n+]([O-])cc1Nc1ccc2[nH]ncc2c1 [N-(4-Nitro-3-pyridinyl)-1H-indazol-5-amine, N^5-oxide]	-78%	–	–	–	–

Source: patent publication US5221682A, “Heteroarylamino- and heteroaryloxypyridinamines and related compounds” (Hoechst-Roussel Pharmaceuticals Incorporated, priority 1991, dated 1993)
